Experiments:
[1] = biological target: T1, CDK9/CycT1 (Homo sapiens (Human), UniProt P50750); test: CDK9 kinase assay, ATP concentration at Km (mobility shift, Caliper LC3000); type: biochemical; details: 6 μM ATP, 3 nM CDK9/CycT1; read-out: CDK9 ATP conc. at Km (IC50)
Summary of the method: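 3 nM CDK9/CycT1 with 6 µM ATP and 1.5 µM FITC-peptide (HEPES pH 7.2) was preincubated with compound 15 min at 25 °C. Reaction started with 10 mM MgCl2 and ran 90 min at 25 °C. Turnover was measured by mobility-shift separation of phosphorylated and unphosphorylated peptide.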

[2] = biological target: T1, CDK9/CycT1; test: CDK9 kinase assay, high ATP concentration (5 mM ATP); type: biochemical; details: 1.5 nM CDK9, read-out: CDK9 High ATP conc. (IC50)
Summary of the method: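 Caliper mobility-shift read-out of phosphorylated vs unphosphorylated FITC-peptide (1.5 μM), giving percent turnover. Final 1.5 nM CDK9/CycT1 and 5 mM ATP in 50 mM HEPES pH 7.2, 1 mM DTT, 10 mM MgCl2; compound preincubated 15 min, reaction 90 min at 25° C, stopped with EDTA.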

[3] = tested on: phosphorylation of RNA Polymerase II (RNAPII) at the Ser2 site in MCF7 cells; test: MCF7 pSer2 RNAPII MOA assay (immunofluorescence); type: cell-based; details: Homo sapiens, MCF7, 6 h, 6-hr treatment, read-out: p-Ser 2 RNAPII (IC50)
Summary of the method: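 MCF7 cells (2500/well), plated overnight, were treated for 6 h at 37° C. with CDK9 inhibitors in a 7-point dose response from 3 μM to 0.004 μM. Cells were then fixed, permeabilized and immunostained for Ser2-phospho RNAPII with Alexa Fluor 488 secondary plus DAPI. Per-well phosphorylation was read by microplate cytometry.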

[4] = tested on: MV411 cells; test: MV411 caspase activity assay (Caspase-Glo 3/7); type: cell-based; details: Homo sapiens, MV4-11, 6 h, 6-hr treatment, caspase 3/7 induction
Summary of the method: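 MV411 AML cells (3000/well) were plated overnight, then treated with compound for 6 h at 37 °C. Caspase-3/7 activity was read as luminescence after 30 min with Caspase-Glo 3/7 reagent at room temperature.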

T1 sequence (P50750 whole entry): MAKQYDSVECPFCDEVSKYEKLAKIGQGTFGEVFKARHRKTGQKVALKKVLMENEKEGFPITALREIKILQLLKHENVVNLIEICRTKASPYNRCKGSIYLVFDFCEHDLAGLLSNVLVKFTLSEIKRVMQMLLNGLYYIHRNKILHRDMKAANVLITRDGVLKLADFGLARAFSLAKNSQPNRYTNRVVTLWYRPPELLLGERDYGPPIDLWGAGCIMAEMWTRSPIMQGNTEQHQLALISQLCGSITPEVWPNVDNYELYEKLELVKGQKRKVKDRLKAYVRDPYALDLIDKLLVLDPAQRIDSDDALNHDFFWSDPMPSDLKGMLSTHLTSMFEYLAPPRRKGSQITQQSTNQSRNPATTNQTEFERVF
T1 sequence (O60563 whole entry partner): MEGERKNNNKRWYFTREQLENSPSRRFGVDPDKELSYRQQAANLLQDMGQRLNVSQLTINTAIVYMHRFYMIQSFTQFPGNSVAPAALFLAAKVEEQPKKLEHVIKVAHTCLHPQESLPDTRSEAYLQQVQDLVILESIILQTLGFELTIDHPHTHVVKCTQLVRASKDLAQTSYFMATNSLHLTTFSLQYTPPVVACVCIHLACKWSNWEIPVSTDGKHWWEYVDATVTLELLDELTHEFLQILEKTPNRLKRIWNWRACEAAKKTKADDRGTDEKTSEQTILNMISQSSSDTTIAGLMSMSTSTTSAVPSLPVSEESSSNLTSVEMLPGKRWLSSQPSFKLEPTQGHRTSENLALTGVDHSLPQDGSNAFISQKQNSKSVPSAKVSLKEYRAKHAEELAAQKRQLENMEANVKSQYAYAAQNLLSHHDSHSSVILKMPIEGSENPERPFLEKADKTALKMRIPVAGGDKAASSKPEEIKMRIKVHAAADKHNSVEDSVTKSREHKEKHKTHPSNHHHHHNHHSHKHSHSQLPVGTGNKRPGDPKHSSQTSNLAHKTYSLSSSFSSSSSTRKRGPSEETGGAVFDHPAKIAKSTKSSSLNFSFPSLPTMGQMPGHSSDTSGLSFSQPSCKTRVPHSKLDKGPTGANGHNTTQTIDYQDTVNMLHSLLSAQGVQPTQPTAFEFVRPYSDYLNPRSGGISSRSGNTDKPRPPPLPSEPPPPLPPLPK

IC50 [1] | IC50 [2] | IC50 [3] | IC50 [4] | SMILES
< 3 nM | 16 nM | 170 nM | 177 nM | CC(C)(C)OC(=O)N[C@@H]1CCC[C@H](C(=O)Nc2cc(-c3cnn4c3CCCC4)c(Cl)cn2)C1 [Example 31a, tert-butyl ((1R,3S)-3-((5-chloro-4-(4,5,6,7-tetrahydropyrazolo[1,5-a]pyridin-3-yl)pyridin-2-yl)carbamoyl)cyclohexyl)carbamate]
< 3 nM | 9 nM | 38 nM | 36 nM | Cc1cnc(NC(=O)[C@H]2CCC[C@@H](NC(=O)C3COC3)C2)cc1-c1cnn2c1CC(C)(C)C2 [Example 76, N-((1R,3S)-3-((4-(5,5-dimethyl-5,6-dihydro-4H-pyrrolo[1,2-b]pyrazol-3-yl)-5-methylpyridin-2-yl)carbamoyl)cyclohexyl)oxetane-3-carboxamide]
< 3 nM | < 3 nM | 10 nM | 15 nM | CC(=O)N[C@@H]1CCC[C@H](C(=O)Nc2cc(-c3cnn4c3CC(C)(C)CC4)c(F)cn2)C1 [Example 51, (1S,3R)-3-acetamido-N-(4-(5,5-dimethyl-4,5,6,7-tetrahydropyrazolo[1,5-a]pyridin-3-yl)-5-fluoropyridin-2-yl)cyclohexanecarboxamide]
8 nM | 690 nM | 1450 nM | 1180 nM | CC(=O)N[C@@H]1CCC[C@H](C(=O)Nc2cc(-c3cnc4n3CCCC4)c(Cl)cn2)C1 [Example 7, (1S,3R)-3-acetamido-N-(5-chloro-4-(5,6,7,8-tetrahydroimidazo[1,2-a]pyridin-3-yl)pyridin-2-yl)cyclohexanecarboxamide]
4 nM | 139 nM | > 2340 nM | 2260 nM | CC(=O)N[C@@H]1CCC[C@H](C(=O)Nc2cc(-c3cn[nH]c3CC(C)(C)CO)c(Cl)cn2)C1 [Example 82a, (1S,3R)-3-acetamido-N-(5-chloro-4-(5-(3-hydroxy-2,2-dimethylpropyl)-1H-pyrazol-4-yl)pyridin-2-yl)cyclohexane-1-carboxamide]
< 3 nM | 5 nM | 19 nM | 26 nM | CC(=O)N[C@@H]1CCC[C@H](C(=O)Nc2cc(-c3cnc4n3CC(C)(C)C4)c(F)cn2)C1 [Example 50, (1S,3R)-3-acetamido-N-(4-(6,6-dimethyl-6,7-dihydro-5H-pyrrolo[1,2-a]imidazol-3-yl)-5-fluoropyridin-2-yl)cyclohexanecarboxamide]
< 3 nM | 28 nM | 123 nM | 139 nM | O=C(Nc1cc(-c2cnn3c2CCCC3)c(Cl)cn1)[C@H]1CCC[C@@H](NC(=O)[C@H]2CCOC2)C1 [Example 38, (S)—N-((1R,3S)-3-((5-chloro-4-(4,5,6,7-tetrahydropyrazolo[1,5-a]pyridin-3-yl)pyridin-2-yl)carbamoyl)cyclohexyl)tetrahydrofuran-3-carboxamide]
< 3 nM | < 3 nM | 6 nM | 12 nM | CC1(C)Cc2c(-c3cc(NC(=O)[C@H]4CCC[C@@H](NC(=O)[C@@H]5CCOC5)C4)ncc3Cl)cnn2C1 [Example 23, (R)—N-((1R,3S)-3-((5-chloro-4-(5,5-dimethyl-5,6-dihydro-4H-pyrrolo[1,2-b]pyrazol-3-yl)pyridin-2-yl)carbamoyl)cyclohexyl)tetrahydrofuran-3-carboxamide]
< 3 nM | 51 nM | 104 nM | 159 nM | CC(=O)N[C@@H]1CCC[C@H](C(=O)Nc2cc(-c3cnn4c3CCCC4)c(F)cn2)C1 [Example 63, (1S,3R)-3-acetamido-N-(5-fluoro-4-(4,5,6,7-tetrahydropyrazolo[1,5-a]pyridin-3-yl)pyridin-2-yl)cyclohexanecarboxamide]
< 3 nM | 29 nM | 67 nM | 111 nM | Cc1cnc(NC(=O)[C@H]2CCC[C@@H](NC(=O)CO)C2)cc1-c1cnn2c1CC(C)(C)C2 [Example 75, (1S,3R)—N-(4-(5,5-dimethyl-5,6-dihydro-4H-pyrrolo[1,2-b]pyrazol-3-yl)-5-methylpyridin-2-yl)-3-(2-hydroxyacetamido)cyclohexanecarboxamide]
< 3 nM | 148 nM | 292 nM | 228 nM | CC1(C)CCn2ncc(-c3cc(NC(=O)[C@H]4CCC[C@@H](N)C4)ncc3F)c2C1 [Example 51a, (1S,3R)-3-amino-N-(4-(5,5-dimethyl-4,5,6,7-tetrahydropyrazolo[1,5-a]pyridin-3-yl)-5-fluoropyridin-2-yl)cyclohexanecarboxamide]
< 3 nM | 19 nM | 57 nM | 171 nM | O=C(Nc1cc(-c2cnn3c2CCCC3)c(Cl)cn1)[C@H]1CCC[C@@H](NC(=O)[C@@H]2CCOC2)C1 [Example 33, (R)—N-((1R,3S)-3-((5-chloro-4-(4,5,6,7-tetrahydropyrazolo[1,5-a]pyridin-3-yl)pyridin-2-yl)carbamoyl)cyclohexyl)tetrahydrofuran-3-carboxamide]
< 3 nM | 39 nM | 38 nM | 104 nM | O=C(Nc1cc(-c2cnn3c2CCCC3)c(Cl)cn1)[C@H]1CCC[C@@H](NC(=O)[C@H]2CCCO2)C1 [Example 36, (R)—N-((1R,3S)-3-((5-chloro-4-(4,5,6,7-tetrahydropyrazolo[1,5-a]pyridin-3-yl)pyridin-2-yl)carbamoyl)cyclohexyl)tetrahydrofuran-2-carboxamide]
< 3 nM | 29 nM | 107 nM | 188 nM | CC1(C(=O)N[C@@H]2CCC[C@H](C(=O)Nc3cc(-c4cnn5c4CCCC5)c(Cl)cn3)C2)COC1 [Example 34, N-((1R,3S)-3-((5-chloro-4-(4,5,6,7-tetrahydropyrazolo[1,5-a]pyridin-3-yl)pyridin-2-yl)carbamoyl)cyclohexyl)-3-methyloxetane-3-carboxamide]
6 nM | 240 nM | 820 nM | 914 nM | CC(=O)N[C@@H]1CCC[C@H](C(=O)Nc2cc(-c3cnn4c3CN(C)CC4)c(Cl)cn2)C1 [Example 13, (1S,3R)-3-acetamido-N-(5-chloro-4-(5-methyl-4,5,6,7-tetrahydropyrazolo[1,5-a]pyrazin-3-yl)pyridin-2-yl)cyclohexanecarboxamide]
10 nM | 777 nM | 455 nM | 431 nM | CC1(C)Cc2c(-c3cc(NC(=O)[C@H]4CCC[C@@H](N)C4)ncc3F)cnn2C1 [Example 54, (1S,3R)-3-amino-N-(4-(5,5-dimethyl-5,6-dihydro-4H-pyrrolo[1,2-b]pyrazol-3-yl)-5-fluoropyridin-2-yl)cyclohexane-1-carboxamide]
5 nM | 350 nM | 830 nM | 701 nM | CC(=O)N[C@@H]1CCC[C@H](C(=O)Nc2cc(-c3cnc4n3CCC4)c(Cl)cn2)C1 [Example 12, (1S,3R)-3-acetamido-N-(5-chloro-4-(6,7-dihydro-5H-pyrrolo[1,2-a]imidazol-3-yl)pyridin-2-yl)cyclohexanecarboxamide]

Reference: US10717746B2, “Chemical compounds” (ASTRAZENECA AB, priority 2015, dated 2020)
